Measured values from the supplement of paper PMC8149375.

Assays:
Settings in all cases: treatment: drug + dasatinib (fixed dose, not stated); 5 days
[1] = test system: UO-31; assay: AUC of dose-response viability curve, drug + dasatinib, normalised to DMSO (arbitrary (AUC of normalised viability)); higher = less growth inhibition
Procedure: (§1)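 Primary HTS combination arm: 8 RCC cell lines treated with 8 doses (up to 10 uM) of each library drug plus a fixed dose of dasatinib (dose not stated) for 5 days; viability read by CellTiter-Glo and normalised to DMSO. GI50 was fitted with XLfit, AUC is the area under the dose-response curve, and minimum viability is the lowest fraction of DMSO viability across doses.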

[2] = test system: SN12C; assay: as above
Procedure: as §1

[3] = test system: A498; assay: as above
Procedure: as §1

[4] = test system: 786-O; assay: as above
Procedure: as §1

[5] = test system: 769-P; assay: as above
Procedure: as §1

[6] = test system: TK-10; assay: as above
Procedure: as §1

[7] = test system: ACHN; assay: as above
Procedure: as §1

[8] = test system: CAKI-1; assay: as above
Procedure: as §1

[9] = test system: UO-31; assay: minimum viability across doses, drug + dasatinib, relative to DMSO (fraction); higher = less growth inhibition
Procedure: as §1

[10] = test system: SN12C; assay: as above
Procedure: as §1

[11] = test system: A498; assay: as above
Procedure: as §1

[12] = test system: 786-O; assay: as above
Procedure: as §1

[13] = test system: 769-P; assay: as above
Procedure: as §1

[14] = test system: TK-10; assay: as above
Procedure: as §1

[15] = test system: ACHN; assay: as above
Procedure: as §1

[16] = test system: CAKI-1; assay: as above
Procedure: as §1

[17] = test system: UO-31; assay: GI50 of drug in presence of dasatinib; higher = less potent
Procedure: as §1

[18] = test system: SN12C; assay: as above
Procedure: as §1

[19] = test system: 786-O; assay: as above
Procedure: as §1

[20] = test system: ACHN; assay: as above
Procedure: as §1

[21] = test system: CAKI-1; assay: as above
Procedure: as §1

[22] = test system: A498; assay: as above
Procedure: as §1

[23] = test system: TK-10; assay: as above
Procedure: as §1

[24] = test system: 769-P; assay: as above
Procedure: as §1

Row | SMILES | AUC of dose-response viability curve [1] | AUC of dose-response viability curve [2] | AUC of dose-response viability curve [3] | AUC of dose-response viability curve [4] | AUC of dose-response viability curve [5] | AUC of dose-response viability curve [6] | AUC of dose-response viability curve [7] | AUC of dose-response viability curve [8] | minimum viability across doses [9] | minimum viability across doses [10] | minimum viability across doses [11] | minimum viability across doses [12] | minimum viability across doses [13] | minimum viability across doses [14] | minimum viability across doses [15] | minimum viability across doses [16] | GI50 of drug [17] [µM] | GI50 of drug [18] [µM] | GI50 of drug [19] [µM] | GI50 of drug [20] [µM] | GI50 of drug [21] [µM] | GI50 of drug [22] [µM] | GI50 of drug [23] [µM] | GI50 of drug [24] [µM]
1 | CO[C@H]1C[C@H]2CC[C@@H](C)[C@@](O)(O2)C(=O)C(=O)N2CCCC[C@H]2C(=O)O[C@H]([C@H](C)C[C@@H]2CC[C@H](OP(C)(C)=O)[C@H](OC)C2)CC(=O)[C@H](C)/C=C(\C)[C@@H](O)[C@@H](OC)C(=O)[C@H](C)C[C@H](C)/C=C/C=C/C=C/1C (stereo in doubt) [Deforolimus (Ridaforolimus)] + Cc1nc(Nc2ncc(C(=O)Nc3c(C)cccc3Cl)s2)cc(N2CCN(CCO)CC2)n1 [dasatinib] | 1.39 | 1.67 | 1.95 | 1.11 | 1.71 | 1.98 | 1.18 | 1.38 | 0.257 | 0.407 | 0.493 | 0.287 | 0.397 | 0.4 | 0.263 | 0.295 | 0.0286 | 0.0256 | < 0.003 | 0.00436 | 0.0168 |  |  | 
2 | CO[C@H]1CC2CC[C@@H](C)[C@@](O)(O2)C(=O)C(=O)N2CCCC[C@H]2C(=O)O[C@H]([C@H](C)C[C@@H]2CCC(OC(=O)C(C)(CO)CO)[C@H](OC)C2)CC(=O)[C@H](C)/C=C(\C)[C@@H](O)[C@@H](OC)C(=O)[C@H](C)C[C@H](C)/C=C/C=C/C=C/1C (stereo in doubt) [Temsirolimus (Torisel)] + Cc1nc(Nc2ncc(C(=O)Nc3c(C)cccc3Cl)s2)cc(N2CCN(CCO)CC2)n1 [dasatinib] | 1.59 | 1.75 | 1.99 | 1.2 | 1.7 | 1.97 | 1.27 | 1.42 | 0.226 | 0.446 | 0.505 | 0.304 | 0.402 | 0.393 | 0.296 | 0.273 | 0.0699 |  | < 0.003 | 0.00325 | 0.0242 | > 10 | 0.512 | 
3 | CO[C@H]1C[C@@H]2CC[C@@H](C)[C@@](O)(O2)C(=O)C(=O)N2CCCC[C@H]2C(=O)O[C@H]([C@H](C)C[C@@H]2CC[C@@H](OCCO)[C@H](OC)C2)CC(=O)[C@H](C)/C=C(\C)[C@@H](O)[C@@H](OC)C(=O)[C@H](C)C[C@H](C)/C=C/C=C/C=C/1C [Everolimus (RAD001)] + Cc1nc(Nc2ncc(C(=O)Nc3c(C)cccc3Cl)s2)cc(N2CCN(CCO)CC2)n1 [dasatinib] | 1.79 | 1.93 | 2.43 | 1.06 | 1.75 | 1.95 | 1.06 | 1.7 | 0.396 | 0.489 | 0.645 | 0.253 | 0.416 | 0.426 | 0.225 | 0.353 | 0.231 | > 10 | < 0.003 | < 0.003 | 0.117 | > 10 |  | 
4 | CCCNC(=O)Nc1ccc(Oc2ncnc3cc(OC)c(OC)cc23)cc1Cl [KRN 633] + Cc1nc(Nc2ncc(C(=O)Nc3c(C)cccc3Cl)s2)cc(N2CCN(CCO)CC2)n1 [dasatinib] | 3.62 | 2.51 | 3.47 | 2.06 | 2.44 | 2.5 | 1.76 | 2.31 | 0.889 | 0.612 | 0.847 | 0.468 | 0.511 | 0.613 | 0.421 | 0.556 | > 10 | > 10 | > 10 |  | > 10 | > 10 | > 10 | > 10
5 | CN1C(=O)C(Cc2c[nH]c3ccccc23)NC1=S (stereo not drawn) [Necrostatin-1] + Cc1nc(Nc2ncc(C(=O)Nc3c(C)cccc3Cl)s2)cc(N2CCN(CCO)CC2)n1 [dasatinib] | 4.58 | 2.59 | 3.71 | 2.48 | 2.66 | 2.34 | 1.92 | 2.13 | 1.06 | 0.7 | 0.963 | 0.628 | 0.71 | 0.639 | 0.492 | 0.535 | > 10 | > 10 | > 10 |  | > 10 | > 10 | > 10 | > 10
6 | Oc1cc(O)cc(/C=C/c2ccc(O)c(O)c2)c1 [Piceatannol] + Cc1nc(Nc2ncc(C(=O)Nc3c(C)cccc3Cl)s2)cc(N2CCN(CCO)CC2)n1 [dasatinib] | 5.19 | 2.46 | 3.83 | 1.91 | 1.97 | 2.59 | 1.78 | 2.07 | 1.24 | 0.603 | 0.903 | 0.31 | 0.498 | 0.653 | 0.167 | 0.135 | > 10 | > 10 | 0.354 |  | 1.15 | > 10 | > 10 | 9.79
7 | CO[C@H]1C[C@@H]2CC[C@@H](C)[C@@](O)(O2)C(=O)C(=O)N2CCCC[C@H]2C(=O)O[C@H]([C@H](C)C[C@@H]2CC[C@@H](O)[C@H](OC)C2)CC(=O)[C@H](C)/C=C(\C)[C@@H](O)[C@@H](OC)C(=O)[C@H](C)C[C@H](C)/C=C/C=C/C=C/1C [Rapamycin (Sirolimus)] + Cc1nc(Nc2ncc(C(=O)Nc3c(C)cccc3Cl)s2)cc(N2CCN(CCO)CC2)n1 [dasatinib] | 1.15 | 1.68 | 2.01 | 0.989 | 1.59 | 1.76 | 1.03 | 1.11 | 0.277 | 0.451 | 0.52 | 0.26 | 0.389 | 0.445 | 0.247 | 0.256 | < 0.003 | < 0.003 | < 0.003 | < 0.003 | < 0.003 | 1.05 |  | 
8 | Cn1cc(-c2ccc3nnc(Sc4ccc5ncccc5c4)n3n2)cn1 [SGX-523] + Cc1nc(Nc2ncc(C(=O)Nc3c(C)cccc3Cl)s2)cc(N2CCN(CCO)CC2)n1 [dasatinib] | 3.15 | 2.46 | 2.84 | 2.25 | 2.38 | 2.41 | 1.87 | 1.92 | 0.836 | 0.679 | 0.743 | 0.477 | 0.548 | 0.646 | 0.452 | 0.41 | > 10 | > 10 | 5.68 |  | 5.5 | > 10 | > 10 | > 10
9 | COc1cc(N2CCC(N3CCN(C)CC3)CC2)ccc1Nc1ncc(Cl)c(Nc2ccccc2S(=O)(=O)C(C)C)n1 [TAE684 (NVP-TAE684)] + Cc1nc(Nc2ncc(C(=O)Nc3c(C)cccc3Cl)s2)cc(N2CCN(CCO)CC2)n1 [dasatinib] | 2.04 | 1.82 | 2.64 | 1.55 | 1.83 | 2.06 | 1.15 | 1.51 | 0.0115 | 0.0423 | 0.348 | 0.0739 | 0.23 | 0.206 | 0.0286 | 0.0167 |  | 0.427 | < 0.003 | 0.0373 | 0.224 | 2.87 | 0.64 | 
10 | O=c1sn(-c2cccc3ccccc23)c(=O)n1Cc1ccccc1 [Tideglusib] + Cc1nc(Nc2ncc(C(=O)Nc3c(C)cccc3Cl)s2)cc(N2CCN(CCO)CC2)n1 [dasatinib] | 4.27 | 2.5 | 3.01 | 1.76 | 2.52 | 2.33 | 1.79 | 2.44 | 1.03 | 0.672 | 0.729 | 0.429 | 0.632 | 0.642 | 0.357 | 0.664 | > 10 | > 10 | 0.0101 |  | > 10 | > 10 | > 10 | > 10
11 | CCO.N#CC(=C(/N)Sc1ccccc1N)/C(C#N)=C(\N)Sc1ccccc1N [U0126-EtOH] + Cc1nc(Nc2ncc(C(=O)Nc3c(C)cccc3Cl)s2)cc(N2CCN(CCO)CC2)n1 [dasatinib] | 3.2 | 2.4 | 3.54 | 2.5 | 2.5 | 2.65 | 1.84 | 2.37 | 0.792 | 0.598 | 0.888 | 0.526 | 0.68 | 0.524 | 0.353 | 0.46 | > 10 | > 10 | > 10 |  | 6.71 | > 10 | > 10 | > 10
12 | NC(=O)c1ccc(N(C(N)=O)c2c(F)cccc2F)nc1-c1ccc(F)cc1F [VX-702] + Cc1nc(Nc2ncc(C(=O)Nc3c(C)cccc3Cl)s2)cc(N2CCN(CCO)CC2)n1 [dasatinib] | 4.36 | 2.54 | 3.52 | 2.23 | 2.4 | 2.39 | 1.87 | 2.43 | 1.12 | 0.685 | 0.887 | 0.547 | 0.627 | 0.598 | 0.409 | 0.649 | > 10 | > 10 | > 10 |  | > 10 | > 10 | > 10 | > 10
13 | Cl.Cl.Clc1ccc(Nc2nnc(Cc3ccncc3)c3ccccc23)cc1 [Vatalanib dihydrochloride (PTK787)] + Cc1nc(Nc2ncc(C(=O)Nc3c(C)cccc3Cl)s2)cc(N2CCN(CCO)CC2)n1 [dasatinib] | 3.35 | 2.32 | 3.2 | 2.65 | 2.3 | 2.63 | 1.91 | 2.04 | 0.834 | 0.632 | 0.729 | 0.549 | 0.433 | 0.666 | 0.474 | 0.217 | > 10 | > 10 | > 10 |  | 2.76 | > 10 | > 10 | 7.92
